In brackets after ≈: the same amount, converted by molar mass.
Legend:
ileum of a guinea pig = test: Evaluation of antihistaminic effects in vitro (inhibition of histamine-induced contraction of isolated ileum, Magnus method); assay type: cell-based; conditions: Cavia porcellus; guinea pig ileum in saline solution at 37°C; histamine diphosphate 0.5 µg/ml; subject compound 0.03 to 10 µg/ml; 50% inhibition of submaximal contraction; read-out: Antihistaminic effect IC50
Description: The effects of Compound I of the present invention and salts thereof as an antiallergic agents can be evaluated by various methods for measuring antiallergic activity, for example by conducting the following tests (1) and (2). • (1) Antihistaminic effect evaluation test in vitro Histamine diphosphate and Compound I of the present invention or salts thereof are added to an ileum of a guinea pig in a saline solution. The concentration (at which the contraction of the ileum by histamine is inhibited by 50%) of Compound I of the present invention is measured. • (2) Histamine₁ receptor (H₁ receptor) in vitro binding inhibition test As a standard material which binds to a H₁ receptor, pyrilamine is used. Compound I of the present invention is added with varying concentrations to a mixture containing a receptor sample prepared by homogenizing a cerebral cortex of a rat and [³H]-pyrilamine, and incubated. From radioactivity of [³H]-pyrilamine which is bound to the receptor sample, the concentration (IC₅₀) of Compound I inhibiting the specific binding of [³H]-pyrilamine to the receptor sample is measured to obtain an inhibition constant (Ki). Compound I of the present invention has a lower degree of migration to brain. Thus, Compound I has less side effects on the central nervous system such as sleepiness, because of its less frequent binding to the H₁ recepter in brain. The extent of migration of Compound I or salts thereof to the brain can be obtained by the following test method 3. • (3) H₁ receptor binding inhibition test ex vivo A cerebral cortex of a mouse orally administered with Compound I of the present invention is homogenized to prepare a receptor sample. The receptor sample is incubated with [³H]-pyrilamine. From the radioactivity of [³H]-pyrilamine bound to the receptor sample, the inhibition of Compound I with respect to the specific biding of pyrilamine to the receptor sample is obtained.
The following experiments were conducted in accordance with the method of R. Magnus (Arch. F.D. Ges. Physiol., 102: 123-151, 1904). Ileums derived from guinea pigs were respectively soaked in a saline solution at 37°C. Then, histamine diphosphate and a subject compound which had been obtained in the Examples shown in Table 1 were added to each saline solution so that the concentrations of histamine diphosphate and the subject compound are 0.5 µg/ml and 0.03 to 10 µg/ml, respectively. The ileum generally contracts by histamine; however, in the case where the subject compound is present, the antagonistic effect of the subject compound on histamine inhibits the contraction of the ileum. The contraction degree of the ileum was measured at each concentration of the added subject compound, and the concentration IC₅₀ of the subject compound which inhibited 50% submaximal contraction of the ileum by histamine was obtained. The submaximal contraction was obtained in the case where the subject compound was not added. […] When the value of IC₅₀ is lower, the subject cmpound has stronger antihistaminic effects.

H₁ receptor = molecular target: T1, H₁ receptor (Mus musculus, UniProt P70174); test: H1 receptor binding inhibition test ex vivo (migration to the brain, [3H]-pyrilamine binding to cerebral cortex after oral dosing); assay type: in vivo; conditions: Slc-ddY male mice, 10 mg/kg orally, cerebral cortex removed 60 minutes after administration, [³H]-pyrilamine 4 nM, lower inhibition = lower migration to brain, read-out: [³H]-labeled pyrilamine binding inhibition ex vivo
T1 construct: A cerebral cortex of a mouse orally administered with Compound I of the present invention is homogenized to prepare a receptor sample; from tissue; host or cells: mouse (Slc-ddY, male) cerebral cortex homogenate after oral dosing
T1 sequence (P70174 whole entry): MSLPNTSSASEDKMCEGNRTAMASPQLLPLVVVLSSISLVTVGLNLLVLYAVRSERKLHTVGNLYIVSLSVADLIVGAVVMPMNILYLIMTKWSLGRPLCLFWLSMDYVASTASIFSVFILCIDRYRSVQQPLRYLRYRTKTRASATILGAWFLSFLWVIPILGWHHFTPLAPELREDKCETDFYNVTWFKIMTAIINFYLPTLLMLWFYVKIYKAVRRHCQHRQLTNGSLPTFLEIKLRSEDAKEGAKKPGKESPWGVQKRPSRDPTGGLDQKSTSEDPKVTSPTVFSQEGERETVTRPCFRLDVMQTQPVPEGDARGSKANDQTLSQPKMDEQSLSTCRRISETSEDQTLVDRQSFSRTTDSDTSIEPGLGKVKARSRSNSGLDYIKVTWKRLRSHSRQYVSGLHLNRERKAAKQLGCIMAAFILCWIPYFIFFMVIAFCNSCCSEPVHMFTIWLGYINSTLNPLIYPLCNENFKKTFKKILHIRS
Description: The receptor sample is incubated with [³H]-pyrilamine.
Five Slc-ddY male mice were used as one group. First, 10 mg/kg of the compound of the present invention was orally administered to each mouse. The mouse were killed by decapitation 60 minutes after the administration and each cerebral cortex was removed. Each cerebral cortex was frozen on dry ice and kept in a refrigerator at -80°C. Before the experiment, each cerebral cortex was homogenized with about 10 times its volume of 50 mM of Na/K phosphate buffer (pH 7.5). A mixture of each cerebral cortex was further diluted 6 times and used as a receptor sample. A mixture of each receptor sample and [³H]-pyrilamine (4 nM) was incubated at 25°C for 30 minutes. The reaction was stopped by dilution and filtration. The radioactivity of [³H]-pyrilamine bound to the receptor sample on the filter paper was measured by a liquid scintillation counter. The specific binding of [³H]-pyrilamine to the receptor sample was obtained by subtracting the non-specific binding from the total bindings. The non-specific binding was obtained under the conditions of containing 10 µM of non-radioactive pyrilamine. The amount of protein was measured by DC protein assay (Biolad), and the inhibition of the compound of the present invention to the specific binding of [³H]-pyrilamine per 1 mg of protein was measured. […]

Structure (SMILES)	IC50 (ileum of a guinea pig) [µg/mL]	inhibition at 10 mg/kg (H₁ receptor) [%]
O=C(NCCCN1CCC(OC(c2ccc(F)cc2)c2ccc(F)cc2)CC1)N1CCN(c2ccccn2)CC1 [Example 50]	0.0817 (≈ 0.149 µM)	2
O=c1[nH]c2ccccc2n1CCCN1CCN(C(c2ccccc2)c2ccccc2)CC1 [Oxatoamide, reference compound]	1 (≈ 2.34 µM)	17
O=C1CSCCN1C(=O)NCCCN1CCC(OC(c2ccc(F)cc2)c2ccc(F)cc2)CC1 [Example 49]	0.0244 (≈ 0.0484 µM)	9
O=C(NCCCN1CCC(OC(c2ccccc2)c2ccccc2)CC1)N1CCN(S(=O)(=O)c2cccc3cccnc23)CC1 [Example 55]	1.14 (≈ 1.82 µM)	0
O=C1CCCN1C(=O)NCCCCCN1CCN(C(c2ccccc2)c2ccccc2)CC1 [Example 79]	0.042 (≈ 0.0936 µM)	5
O=C(NCCCN1CCC(OC(c2ccccc2)c2ccccc2)CC1)N1CCN(S(=O)(=O)c2cccnc2)CC1 [Example 61]	0.196 (≈ 0.339 µM)	6
CCOC(=O)N1CCN(C(=O)NCCCN2CCC(OC(c3ccc(F)cc3)c3ccc(F)cc3)CC2)CC1 [Example 51]	0.427 (≈ 0.784 µM)	0
O=C(NCCCN1CCC(OC(c2ccccc2)c2ccccc2)CC1)N1CCN(C(c2ccccc2)c2ccccc2)CC1 [Example 45]	0.621 (≈ 1.03 µM)	6
CC(C)(C)OC(=O)N1CCN(C(=O)NCCCN2CCC(OC(c3ccccc3)c3ccccc3)CC2)CC1 [Example 70]	0.0889 (≈ 0.166 µM)	2
CC(C)(C)c1ccc(C(O)CCCN2CCC(C(O)(c3ccccc3)c3ccccc3)CC2)cc1 (stereo not drawn) [Terfenadine, reference compound]	22.4 (≈ 47.4 µM)	
O=C(NCCCN1CCC(OC(c2ccccc2)c2ccccc2)CC1)N1CCN(c2ncccn2)CC1 [Example 15]	0.0595 (≈ 0.116 µM)	6

Second part, the compound after the results:

IC50 (ileum of a guinea pig) [µg/mL]	inhibition at 10 mg/kg (H₁ receptor) [%]	Structure (SMILES)
0.442 (≈ 0.89 µM)	0	O=C(NCCCN1CCC(=C(c2ccccc2)c2ccccc2)CC1)N1CCN(c2ncccn2)CC1 [Example 5]
1.12 (≈ 2.16 µM)	7	CC(C)(C)OC(=O)N1CCN(C(=O)NCCCN2CCC(=C(c3ccccc3)c3ccccc3)CC2)CC1 [Example 71]
0.119 (≈ 0.246 µM)	4	O=C(NCCN1CCN(C(c2ccccc2)c2ccccc2)CC1)N1CCN(c2ccccn2)CC1 [Example 39]
0.216 (≈ 0.404 µM)	14	O=C(NCCCN1CCN(C(c2ccc(F)cc2)c2ccc(F)cc2)CC1)N1CCN(c2ccccn2)CC1 [Example 43]
1.76 (≈ 3.66 µM)	0	O=C(NCCN1CCC(=C(c2ccccc2)c2ccccc2)CC1)N1CCN(c2ccccn2)CC1 [Example 53]
1.38 (≈ 2.26 µM)	0	O=C(NCCCN1CCC(=C(c2ccccc2)c2ccccc2)CC1)N1CCN(S(=O)(=O)c2cccc3cccnc23)CC1 [Example 56]

Reference: EP0628551A1, “Semicyclic urea derivatives as antihistaminic agents” (SHIONOGI & CO., LTD., priority 1993, dated 1994)
